Where two headings read alike, the source gives them in different places.

This is an account of results in patent publication US9546151B2, “VMAT inhibitory compounds” (Oregon Health & Science University, priority 2014, dated 2017).

The target of series [1] is T1, VMAT2 (Homo sapiens, UniProt Q05940). Conditions: background statements; cited from earlier work.
Target sequence in this assay (Q05940 whole entry, species assumed): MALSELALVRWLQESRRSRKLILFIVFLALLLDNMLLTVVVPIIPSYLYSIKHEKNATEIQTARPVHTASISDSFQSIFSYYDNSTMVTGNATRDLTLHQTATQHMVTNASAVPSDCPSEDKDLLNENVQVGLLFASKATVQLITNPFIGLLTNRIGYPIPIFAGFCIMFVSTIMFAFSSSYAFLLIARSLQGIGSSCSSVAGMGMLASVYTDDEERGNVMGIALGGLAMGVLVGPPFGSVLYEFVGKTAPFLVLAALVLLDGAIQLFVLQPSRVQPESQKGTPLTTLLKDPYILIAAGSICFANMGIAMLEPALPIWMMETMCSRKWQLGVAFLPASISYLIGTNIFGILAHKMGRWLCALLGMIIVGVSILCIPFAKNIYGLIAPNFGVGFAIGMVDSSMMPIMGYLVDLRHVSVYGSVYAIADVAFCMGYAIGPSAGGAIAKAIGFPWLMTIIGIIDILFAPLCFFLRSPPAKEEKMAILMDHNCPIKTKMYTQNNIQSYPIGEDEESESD
In series [2] the target is T1, VMAT2. Conditions: transfected cells; Miller et al 2004; cited from earlier work.
Target sequence in this assay (Q05940 whole entry, species assumed): as above
For series [3], the target named is DAT (Homo sapiens, UniProt Q01959). Conditions: transfected cells; Miller et al 2004; cited from earlier work.
Sequence of DAT (Q01959 whole entry, species assumed): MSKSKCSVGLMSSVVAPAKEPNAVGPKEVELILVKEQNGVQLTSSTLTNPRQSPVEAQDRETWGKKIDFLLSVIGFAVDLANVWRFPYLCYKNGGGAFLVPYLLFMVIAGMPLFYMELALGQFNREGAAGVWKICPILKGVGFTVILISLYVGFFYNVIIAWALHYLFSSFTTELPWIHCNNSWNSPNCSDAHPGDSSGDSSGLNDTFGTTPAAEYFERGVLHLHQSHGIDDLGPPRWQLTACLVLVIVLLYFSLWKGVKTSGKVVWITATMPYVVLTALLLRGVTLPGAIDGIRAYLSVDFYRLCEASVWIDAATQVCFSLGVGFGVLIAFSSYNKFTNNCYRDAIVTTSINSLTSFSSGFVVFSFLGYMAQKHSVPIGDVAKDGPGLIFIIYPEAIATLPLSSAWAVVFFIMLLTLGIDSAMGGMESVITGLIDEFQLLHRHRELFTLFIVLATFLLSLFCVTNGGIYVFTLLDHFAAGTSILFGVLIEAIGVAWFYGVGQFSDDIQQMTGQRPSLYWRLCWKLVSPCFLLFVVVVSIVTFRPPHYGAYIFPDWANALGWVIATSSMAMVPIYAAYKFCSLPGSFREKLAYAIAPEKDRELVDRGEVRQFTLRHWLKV
For series [4] the following is noted: rats, lever press; Harrod et al 2001; cited from earlier work.
The target of series [5] is T2, recombinant human dopamine transporter (hDAT) (Homo sapiens, UniProt Q01959).
T2 construct: expressed in transfected cells; host or cells: HEK cells
T2 sequence (Q01959 whole entry): as the sequence (Q01959 whole entry, species assumed) above
Put plainly: [125I]RTI-55 binding, HEK-hDAT. The note with it: used in Cheng-Prusoff equation. The protocol:
(§1) Standard methods of assessing [^3H]neurotransmitter uptake and [^125I]RTI-55 binding using HEK cell lines are described in Eshleman et al, J Pharmacol Exp Therap 289, 877-885 (1999), which is incorporated by reference herein and were as follows:
(§2) Compounds were weighed and dissolved in DMSO to make a stock solution of 10 mM. An initial dilution to 50 μM in assay buffer or water for binding, or to 1 mM in assay buffer or water for uptake, was made. Subsequent dilutions were made with assay buffer supplemented with DMSO, maintaining a final concentration of 0.1% DMSO. Pipetting was conducted using a Biomek 2000 robotic workstation.
(§3) Cells were grown to 100% confluence on 150 mm diameter tissue culture dishes and served as the tissue source. Cell membranes were prepared as follows. Medium was poured off the plate, and the plate was washed with 10 ml of calcium- and magnesium-free phosphate-buffered saline. Lysis buffer (10 ml; 2 mM HEPES with 1 mM EDTA) was added. After 10 min, lysed cells were scraped from plates, transferred into centrifuge tubes, and centrifuged at 30,000×g for 20 min. The supernatant fluid was removed, and the pellet was resuspended in 12-32 ml of sucrose (0.32 M) using a Polytron at setting 7 for 10 sec. The resuspension volume depended on the density of binding sites within a cell line and was chosen to reflect binding of 10% or less of the total radioactivity. […]

The target in series [6] is T3, recombinant human serotonin transporter (hSERT) (Homo sapiens, UniProt P31645).
T3 construct: expressed in transfected cells; host or cells: HEK cells
T3 sequence (P31645 whole entry): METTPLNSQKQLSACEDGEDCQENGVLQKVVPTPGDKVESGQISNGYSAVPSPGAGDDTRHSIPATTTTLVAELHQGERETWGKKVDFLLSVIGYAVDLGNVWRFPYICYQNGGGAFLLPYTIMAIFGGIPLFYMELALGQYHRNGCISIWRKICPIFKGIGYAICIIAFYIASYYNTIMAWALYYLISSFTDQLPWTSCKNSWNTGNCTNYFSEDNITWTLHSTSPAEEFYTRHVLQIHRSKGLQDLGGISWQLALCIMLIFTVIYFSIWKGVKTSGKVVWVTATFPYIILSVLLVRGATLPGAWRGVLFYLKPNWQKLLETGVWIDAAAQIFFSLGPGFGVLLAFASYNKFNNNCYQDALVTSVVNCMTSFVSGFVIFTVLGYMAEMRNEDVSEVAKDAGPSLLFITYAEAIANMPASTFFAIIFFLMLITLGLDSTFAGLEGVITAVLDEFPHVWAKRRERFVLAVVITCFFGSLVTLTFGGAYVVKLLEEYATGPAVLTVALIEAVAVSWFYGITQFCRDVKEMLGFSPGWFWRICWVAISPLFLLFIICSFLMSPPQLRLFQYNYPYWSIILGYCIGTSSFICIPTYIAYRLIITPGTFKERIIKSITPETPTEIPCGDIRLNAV
Nature of the series: [125I]RTI-55 binding, HEK-hSERT. The note with it: used in Cheng-Prusoff equation. The protocol:
as §1, §2, §3

Series [7] has as its target T4, recombinant human norepinephrine transporter (hNET) (Homo sapiens, UniProt P23975).
T4 construct: expressed in transfected cells; host or cells: HEK cells
Put plainly: [125I]RTI-55 binding, HEK-hNET. Conditions: used in Cheng-Prusoff equation. The protocol:
as §1, §2, §3

Series [8] deals with T1, VMAT2. Conditions: high concentrations; cited from earlier work.
Target sequence in this assay (Q05940 whole entry, species assumed): as the sequence (Q05940 whole entry, species assumed) above
For series [9] the following is noted: base; cited from earlier work.
The target of series [10] is T5, human 5HT1A receptor (Homo sapiens, UniProt P08908).
T5 construct: expressed in transfected cells; host or cells: HEK cells (G418 selection)
T5 sequence (P08908 1-422): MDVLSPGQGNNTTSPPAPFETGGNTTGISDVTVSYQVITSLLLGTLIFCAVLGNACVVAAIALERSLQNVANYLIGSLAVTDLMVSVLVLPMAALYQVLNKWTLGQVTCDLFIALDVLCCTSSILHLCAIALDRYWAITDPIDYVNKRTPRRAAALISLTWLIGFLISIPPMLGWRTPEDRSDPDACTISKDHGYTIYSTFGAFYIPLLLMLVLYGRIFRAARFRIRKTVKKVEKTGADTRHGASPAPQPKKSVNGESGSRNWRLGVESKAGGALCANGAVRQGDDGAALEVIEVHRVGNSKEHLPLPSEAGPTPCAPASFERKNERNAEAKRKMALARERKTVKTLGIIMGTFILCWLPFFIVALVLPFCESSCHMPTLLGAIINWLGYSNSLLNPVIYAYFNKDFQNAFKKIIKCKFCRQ
Put plainly: h5HT1A receptors: [3H]8-OH-DPAT binding. The note with it: read-out: 5-HT1A [^3H] 8—OH DPAT Ki(nM) ± SEM. As to the method:
Human embryonic kidney cells expressing the human 5HT1A receptor (HEK-h5HT1A) were used. The cells were grown to confluence in DMEM containing 10% FetalClone® (abbreviated as FC—source: HyClone), 0.05% penicillin-streptomycin (pen-strep), and 300 μg/mL of Geneticin (G418). The cells were scraped from 150 mm plates into phosphate-buffered saline and centrifuged at 270×g, 1200 rpm, for 10 minutes. The cell pellet was homogenized in 50 mM Tris-HCl (pH 7.7) with a Polytron, and centrifuged at 27,000×g. […] The final pellet was resuspended at 0.5 mg protein/mL in assay buffer (25 mM Tris-HCl, pH 7.4, containing 100 μM ascorbic acid and 10 μM pargyline). The assay was performed in duplicate in a 96-well plate. Serial dilutions of test compounds were made using the Biomek 2000 robotics system. […] Nonspecific binding was determined with 1.0 μM dihydroergotamine. The plates were incubated at room temperature for 60 minutes and then filtered through polyethylenimine-soaked (0.05%) “A” filtermats on a Tomtec cell harvester. The filters were washed with cold 50 mM Tris buffer (pH 7.7) for 6 sec, dried, spotted with scintillation cocktail, and counted for 2 minutes after a 4 hour delay on a Wallac Betaplate 1205 liquid scintillation counter.

The target of series [11] is T6, human 5HT2A receptor (Homo sapiens, UniProt P28223).
T6 construct: expressed in transfected cells; host or cells: HEK cells
T6 sequence (P28223 whole entry): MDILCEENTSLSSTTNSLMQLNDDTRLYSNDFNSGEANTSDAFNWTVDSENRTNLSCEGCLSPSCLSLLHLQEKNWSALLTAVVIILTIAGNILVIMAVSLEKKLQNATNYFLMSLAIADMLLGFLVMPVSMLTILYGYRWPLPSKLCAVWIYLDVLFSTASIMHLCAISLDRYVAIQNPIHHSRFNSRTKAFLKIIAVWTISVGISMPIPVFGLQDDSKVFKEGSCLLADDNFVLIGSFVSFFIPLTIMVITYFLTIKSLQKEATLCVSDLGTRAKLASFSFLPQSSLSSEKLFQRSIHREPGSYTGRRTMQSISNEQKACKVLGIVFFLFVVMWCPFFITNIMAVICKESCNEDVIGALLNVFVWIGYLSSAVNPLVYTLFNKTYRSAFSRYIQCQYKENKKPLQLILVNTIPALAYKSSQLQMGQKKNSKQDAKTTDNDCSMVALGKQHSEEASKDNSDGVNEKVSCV
Put plainly: h5HT2A receptors: [125I]DOI binding. Conditions: read-out: 5-HT2A [^125I]DOI Ki (nM) ± SEM. As to the method: Method: Human embryonic kidney cells expressing the human 5HT2A receptor (HEK-h5HT2A) or human 5HT2C receptor (HEK-h5HT2C) were used. The cells were grown until confluent on 15 cm plates. Media was removed, cells were washed with phosphate-buffered saline (PBS), scraped into 2 ml PBS and frozen at −20° C. until needed. Cell suspension was thawed, 10 ml assay buffer (50 mM Tris, pH 7.4 at 37° C., with 0.1% ascorbic acid and 5 mM CaCl2) was added per plate of cells, and polytronned at setting 6 for 5 sec. The homogenate was centrifuged at 15,500 rpm for 20 min. […] The final pellet was resuspended in 2 ml buffer/plate of cells.
The reaction was incubated for 1 hour at 37° C., and terminated by filtration through Wallac A filtermats presoaked in 0.05% polyethylenimine using a Tomtec 96-well harvester. Radioactivity remaining on filters was counted in a Wallac betaplate reader. IC50 values were calculated using GraphPad Prism. IC50 values were converted using the Cheng-Prusoff equation.

In series [12] the target is T1, VMAT2. Nature of the series: hVMAT2 [3H]DTBZ ([3H]DHTB) binding assay. Also on record: expressed in transfected cells; host or cells: HEK (human embryonic kidney) cells. Conditions: HEK-hVMAT2 membranes.
Target sequence in this assay (Q05940 whole entry): as the sequence (Q05940 whole entry, species assumed) above
The target of series [13] is T1, VMAT2. Put plainly: hVMAT2 5HT Uptake. Format: biochemical. Also on record: expressed in transfected cells; host or cells: HEK (human embryonic kidney) cells. The gist of the method: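 Membranes came from HEK cells expressing human VMAT2, homogenized in 0.32 M sucrose with protease inhibitors and spun at 800×g then 10,000×g. The pellet was osmotically shocked in ice-cold water, restored with Tris pH 7.4, sodium potassium tartrate and MgSO4, and collected at 20,000×g.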
Target sequence in this assay (Q05940 whole entry): as the sequence (Q05940 whole entry, species assumed) above

Series [14] addresses T7, human 5HT2C receptor (Homo sapiens, UniProt P28335).
T7 construct: expressed in transfected cells; host or cells: HEK cells
T7 sequence (P28335 33-458): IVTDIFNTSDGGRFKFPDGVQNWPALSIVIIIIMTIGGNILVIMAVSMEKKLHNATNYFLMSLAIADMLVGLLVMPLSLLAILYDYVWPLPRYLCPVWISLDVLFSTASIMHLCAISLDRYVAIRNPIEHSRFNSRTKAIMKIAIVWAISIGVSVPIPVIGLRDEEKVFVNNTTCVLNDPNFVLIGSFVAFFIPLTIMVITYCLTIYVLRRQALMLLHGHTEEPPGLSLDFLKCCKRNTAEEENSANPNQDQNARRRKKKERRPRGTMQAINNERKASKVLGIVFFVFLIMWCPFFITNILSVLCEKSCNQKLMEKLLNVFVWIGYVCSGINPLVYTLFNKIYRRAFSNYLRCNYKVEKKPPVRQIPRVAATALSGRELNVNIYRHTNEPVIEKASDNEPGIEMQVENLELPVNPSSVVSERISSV
Nature of the series: h5HT2C receptors: [125I]DOI binding. Conditions: read-out: Kd for [^125I] DOI at 5HT2C receptors; used in Cheng-Prusoff equation. The protocol:
The method was adapted from AR Knight et al, Naunyn-Schmeideberg's Arch Pharmacol 370, 114-123 (2004).
Method: Human embryonic kidney cells expressing the human 5HT2A receptor (HEK-h5HT2A) or human 5HT2C receptor (HEK-h5HT2C) were used. The cells were grown until confluent on 15 cm plates. Media was removed, cells were washed with phosphate-buffered saline (PBS), scraped into 2 ml PBS and frozen at −20° C. until needed. Cell suspension was thawed, 10 ml assay buffer (50 mM Tris, pH 7.4 at 37° C., with 0.1% ascorbic acid and 5 mM CaCl2) was added per plate of cells, and polytronned at setting 6 for 5 sec. The homogenate was centrifuged at 15,500 rpm for 20 min. To minimize the residual 5HT concentration, the pellet was resuspended in buffer, polytronned, and centrifuged as above. The final pellet was resuspended in 2 ml buffer/plate of cells.
The binding assay included 50 μl drug, 5HT or buffer, 50 μl cell homogenate, 50 μl [^125I]DOI (˜0.1 nM) and buffer in a final volume of 250 μl. Specific binding was defined as the difference between total binding and binding in the presence of 10 μM 5HT. The reaction was incubated for 1 hour at 37° C., and terminated by filtration through Wallac A filtermats presoaked in 0.05% polyethylenimine using a Tomtec 96-well harvester. Radioactivity remaining on filters was counted in a Wallac betaplate reader. IC50 values were calculated using GraphPad Prism. […]

The mark [15] stands for this setting: cells printed in μM under a head in nM.
Setting [16] is: cells printed in μM under a head in nM, read-out: hVMAT2 5HT Uptake IC50 (nM) ± SEM.

T4 sequence (P23975 whole entry): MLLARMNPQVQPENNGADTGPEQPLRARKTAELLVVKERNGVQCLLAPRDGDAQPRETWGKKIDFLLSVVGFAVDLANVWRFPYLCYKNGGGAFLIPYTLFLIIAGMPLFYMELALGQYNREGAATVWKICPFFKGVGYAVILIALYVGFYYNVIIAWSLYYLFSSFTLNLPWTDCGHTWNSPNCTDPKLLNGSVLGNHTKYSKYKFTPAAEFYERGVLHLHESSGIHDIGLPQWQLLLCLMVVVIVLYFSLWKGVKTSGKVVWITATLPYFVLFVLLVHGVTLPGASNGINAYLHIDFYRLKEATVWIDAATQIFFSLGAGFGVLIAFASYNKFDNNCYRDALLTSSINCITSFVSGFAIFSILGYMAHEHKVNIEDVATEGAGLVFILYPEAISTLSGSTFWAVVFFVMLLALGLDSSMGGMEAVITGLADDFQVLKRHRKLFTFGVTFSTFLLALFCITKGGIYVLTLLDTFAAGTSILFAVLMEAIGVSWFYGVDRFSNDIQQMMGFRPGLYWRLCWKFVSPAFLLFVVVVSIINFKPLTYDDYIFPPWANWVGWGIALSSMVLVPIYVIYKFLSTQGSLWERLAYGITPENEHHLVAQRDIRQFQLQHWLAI

For the molecule `O=C(c1ccc(F)cc1)C1CCN(CCn2c(=O)[nH]c3ccccc3c2=O)CC1` [Ketanserin], the “affinity for VMAT2 (in words)” value in series [1] is recorded as “high affinity”.
In the case of `CN1[C@@H](CC(=O)c2ccccc2)CCC[C@H]1C[C@H](O)c1ccccc1` [lobeline, 2-((2R,6S)-6-((S)-2-Hydroxy-2-phenylethyl)-1-methylpiperidin-2-yl)-1-phenylethanone], the “affinity at VMAT2” value in series [2] was 4.3 µM. Further, the “affinity at the DAT” value in series [3] was 5.4 µM. Also, the “responding for intravenous MA or sucrose after pretreatment” value in series [4] is “decreased responding to both acutely”.
For the molecule `COC(=O)[C@H]1[C@@H](c2ccc(I)cc2)C[C@@H]2CC[C@H]1N2C` [[^125I]RTI-55], the figures for the Kd in series [5], in series [6] and in [7] were 1.2 nM, 0.98 nM and 12.1 nM, respectively.
Take `CN[C@@H](C)Cc1ccccc1` [MA, Methamphetamine]: the “concentration for inhibition of [^3H]DTBZ binding” value in series [8] is 1.2 mM. Moreover, the pKa in series [9] was 9.8.
Turning to `CCOC(=O)[C@@H]1CN(CCn2c(=O)[nH]c3ccccc3c2=O)CC[C@@H]1c1ccc(C(C)O)cc1` (mixture of isomers) [Compound 5p, (±) syn-ethyl 1-(2-(2,4-dioxo-1,2-dihydroquinazolin-3(4H)-yl)ethyl)-4-(4-(1-hydroxyethyl)phenyl)piperidine-3-carboxylate], the melting point was in the range of 187 to 188 °C. Moreover, in series [10] (setting [15]), the Ki was more than 10 µM. The Ki in [11] (setting [15]) is more than 10 µM. For the same molecule, the Ki in series [12] (setting [15]) was more than 9 µM. Further, the IC50 in series [13] (setting [16]) is more than 8 µM.
For the molecule `O=c1[nH]c2ccccc2c(=O)n1CCN1CC=C(c2ccccc2)CC1` [R1=H, 3,4-bond=ene], the Ki was determined as 0.197 ± 0.015 µM in series [10] (HEK-h5HT1A homogenate), 0.139 ± 0.027 µM in [11] (HEK-h5HT2A homogenate) and 0.821 ± 0.197 µM in series [12] (series 5 ligands tested as hydrochloride salts). Also, in series [13], the IC50 is 0.0039 ± 0.0005 µM.
`COc1cc(CC(C)N)c(OC)cc1I` (centres unmarked) [[^125I] DOI]: the Kd in series [14] is 4.18 nM.
Turning to `CCOC(=O)[C@H]1CN(CCn2c(=O)[nH]c3ccccc3c2=O)CC[C@H]1c1cccc(N(C)C)c1` (racemic) [Compound 5aa, (±)-syn-Ethyl 4-(3-(dimethylamino)phenyl)-1-(2-(2,4-dioxo-1,2-dihydroquinazolin-3(4H),-yl)ethyl) piperidine-3-carboxylate], the Ki in series [10] (setting [15]), in series [11] (setting [15]) and in series [12] (setting [15]) was more than 10 µM each time. Besides, in series [13] (setting [16]), the IC50 was more than 5 µM.

A word on the Kd: it is the constant that tells how readily two partners part at equilibrium. For orientation: pKa means the pH at which an ionisable group is half protonated. As usually defined, the Ki is the equilibrium dissociation constant of an inhibitor or competing ligand from its target. One may read the melting point as the temperature, or range, at which the solid turns liquid. A word on the IC50: it is the point on the concentration scale where inhibition reaches its midpoint.
